Patent publication US20250281453A1, “COMBINATION THERAPIES COMPRISING QTX125” (QUIMATRYX, S.L., priority 2022, published 2025)

Legend:
Type in all cases: cell-based
[1] = system: Hep-G2 hepatic cancer cells; assay: Cell viability, ALAMAR blue assay, monotherapy; details: for EC50: HepG2, 72 h, read-out: EC50 dose of monotherapy; for percentage (%) cell viabilities: 72 hours of high-dose monotherapy (Table 2: QTX125 5, sorafenib 100, gemcitabine 100, bortezomib 1 μM)
Experimental: (§1) In brief, HCT-116, MiaPaCa-2 and Panc-1 cells were thawed in high glucose DMEM (Sigma D5796) with 10% heat-inactivated Foetal Calf Serum (FCS) (PAA, A15-101)). Hep-G2 and SK-Hep1 cells were thawed in Minimum Essential Media (MEM) (Sigma M2279) with 1% non-essential amino acids (Sigma M7145), 2 mM Glutamine (Sigma G7513) and 10% FCS. SK-OV-3 cells were thawed in McCoy's 5A medium (Sigma, M8403) with 15% FCS. All cells were passaged by washing once in cation-free dPBS (Sigma, D1408), and incubated for 3 minutes with trypsin ([0.5 μg/ml]/EDTA [0.2 μg/ml] (Sigma, T4174) in dPBS). Passage was completed at 37° C., and cells were transferred to the appropriate media. Prior to seeding at defined cell density, cells were recovered in medium, centrifuged and resuspended for counting.
(§2) To prepare cells for viability assays, cells were transferred into 96 well tissue culture plates (Cultek), and resuspended in 100 µL at the following densities: 10,000 cells/well (Hep-G2 and MiaPaCa-2), 5000 cells/well (Panc-1 and SK-OV-3) or 3000 cells/well (HCT-116). Following 24 hours of incubation, media was removed and replaced with 100 µL media spiked with QTX125 and the test chemotherapeutic agents. Stock solutions for the agents used in this study are shown below in Table 1. Cells were incubated for a further 72 hours before cell viability was assessed using both ALAMAR® and hexosaminidase assays.
(§3) For the ALAMAR® blue assay, media containing QTX125 and the test chemotherapeutic agents was removed, and cells were stained using ALAMAR® blue (BioSource DAL 1100) for 4 hours at 37° C., following the manufacturer's instructions. Relative fluorescent intensity was measured using a Cytofluor® plate reader (Millipore) at 535/590 nm (Excitation/emission). This measure directly correlates with the number of viable cells present in each well.
(§4) A number of appropriate control samples were included. First, absorbance values measured in reagent ‘blank’ wells (containing cell culture medium and colorimetric agent only) were subtracted from ‘test’ sample-containing wells. ‘Blank’ absorbance values were routinely between 5 and 10% of the values recorded in test wells. Absorbance values recorded in test wells were then compared against wells containing (i) cells stimulated with QTX125 only; (ii) cells stimulated with sorafenib, gemcitabine or bortezomib only and/or (iii) unstimulated cells, as appropriate.
(§5) Control values were normalised to 100% and percentage (%) viability was calculated. Data were used to plot log dose-response curves using a sigmoid dose-response (variable slope) equation. EC50 values were obtained using Equation 1, where ‘X’ is the logarithmic concentration; ‘Y’ is the response output and it is assumed that Y starts at bottom of the graph and reaches the top with an overall sigmoid shape.
(§6) Prior to assessing the oncolytic efficacy of QTX125-containing combination therapies, the oncolytic effect of each test agent was assessed in isolation. Dose-response curves were produced by serial dilution (1:1), thereby allowing monotherapy EC50 values to be calculated.
(§7) Chemotherapeutic agents were added to wells at a starting concentration of 100 μM. However, it was quickly determined that it was not possible to use this range for all chemotherapeutic agents tested. An optimization study was therefore completed to identify suitable maximum (‘high’) doses for each agent and in each individual cell line.

[2] = system: Panc-1 pancreatic cancer cells; assay: Cell viability, ALAMAR blue assay, monotherapy; details: for EC50: 72 h, read-out: EC50 dose of monotherapy
Experimental: as §1, §2, §3, §4, §5, §6, §7

[3] = system: MiaPaCa-2 pancreatic cancer cells; assay: Cell viability, ALAMAR blue assay, monotherapy; details: for EC50: MIA PaCa-2, 72 h, 72 h, read-out: EC50 dose of monotherapy; for percentage (%) cell viabilities: 72 hours of high-dose monotherapy (Table 2: QTX125 100, sorafenib 100, gemcitabine 100, bortezomib 1 μM)
Experimental: as §1, §2, §3, §4, §5, §6, §7

[4] = system: HCT-116 colonic cancer cells; assay: Cell viability, ALAMAR blue assay, monotherapy; details: for EC50: 72 h, read-out: EC50 dose of monotherapy
Experimental: as §1, §2, §3, §4, §5, §6, §7

[5] = system: SK-OV-3 ovarian cancer cells; assay: Cell viability, ALAMAR blue assay, monotherapy; details: for EC50: 72 h, read-out: EC50 dose of monotherapy
Experimental: as §1, §2, §3, §4, §5, §6, §7

[6] = system: Hep-G2 hepatic cancer cells; assay: Cell viability, hexosaminidase assay, monotherapy; details: for EC50: HepG2, 72 h, read-out: EC50 dose of monotherapy; for percentage (%) cell viabilities: 72 hours of high-dose monotherapy (Table 2: QTX125 5, sorafenib 100, gemcitabine 100, bortezomib 1 μM)
Experimental: as §1, §2
(§8) For the hexosaminidase assay, media containing QTX125 and the test chemotherapeutic agents was removed, and cells were washed once with PBS. 60 μL of substrate solution (containing: 7.5 mM p-nitrophenol-N-acetyl-beta-D-glucosamide [Sigma N-9376], 0.1 M sodium citrate, pH 5.0 and 0.25% Triton X-100) was added to each well and cells were incubated at 37° C. for at least 1 hour. Incubating cells in this manner causes the substrate solution to become bright yellow, at which point 90 μL of developer solution (containing 50 mM Glycine pH 10.4 and 5 mM EDTA) was added to each well. Absorbance at 410 nm was recorded using a plate reader.
as §4, §5, §6, §7

[7] = system: Panc-1 pancreatic cancer cells; assay: Cell viability, hexosaminidase assay, monotherapy; details: for EC50: read-out: EC50 dose of monotherapy
Experimental: as §1, §2, §8, §4, §5, §6, §7

[8] = system: MiaPaCa-2 pancreatic cancer cells; assay: Cell viability, hexosaminidase assay, monotherapy; details: for EC50: MIA PaCa-2, 72 h, read-out: EC50 dose of monotherapy; for percentage (%) cell viabilities: 72 hours of high-dose monotherapy (Table 2: QTX125 100, sorafenib 100, gemcitabine 100, bortezomib 1 μM)
Experimental: as §1, §2, §8, §4, §5, §6, §7

[9] = system: HCT-116 colonic cancer cells; assay: Cell viability, hexosaminidase assay, monotherapy; details: for EC50: read-out: EC50 dose of monotherapy
Experimental: as §1, §2, §8, §4, §5, §6, §7

[10] = system: SK-OV-3 ovarian cancer cells; assay: Cell viability, hexosaminidase assay, monotherapy; details: for EC50: read-out: EC50 dose of monotherapy
Experimental: as §1, §2, §8, §4, §5, §6, §7

[11] = Homo sapiens, HepG2, 72 hours of high-dose monotherapy (Table 2: QTX125 5, sorafenib 100, gemcitabine 100, bortezomib 1 μM), read-out: percentage (%) cell viabilities
[12] = Homo sapiens, 72 hours of high-dose monotherapy (Table 2: QTX125 100, sorafenib 100, gemcitabine 100, bortezomib 1 μM), read-out: percentage (%) cell viabilities
[13] = Homo sapiens, MIA PaCa-2, 72 hours of high-dose monotherapy (Table 2: QTX125 100, sorafenib 100, gemcitabine 100, bortezomib 1 μM), read-out: percentage (%) cell viabilities
[14] = Homo sapiens, 72 hours of high-dose monotherapy (Table 2: QTX125 1, sorafenib 100, gemcitabine 10, bortezomib 1 μM), read-out: percentage (%) cell viabilities
[15] = Homo sapiens, 72 hours of high-dose monotherapy (Table 2: QTX125 10, sorafenib 100, gemcitabine 10, bortezomib 1 μM), read-out: percentage (%) cell viabilities
[16] = high-dose monotherapy, 72 hours
[17] = 72 hours of high-dose monotherapy (Table 2: QTX125 100, sorafenib 100, gemcitabine 100, bortezomib 1 μM)
[18] = 72 hours of high-dose monotherapy (Table 2: QTX125 1, sorafenib 100, gemcitabine 10, bortezomib 1 μM)
[19] = 72 hours of high-dose monotherapy (Table 2: QTX125 10, sorafenib 100, gemcitabine 10, bortezomib 1 μM)

| EC50 ([1]; Homo sapiens) | EC50 ([2]; Homo sapiens) | EC50 ([3]; Homo sapiens) | EC50 ([4]; Homo sapiens) | EC50 ([5]; Homo sapiens) | EC50 ([6]; Homo sapiens) | EC50 ([7]; Homo sapiens, 72 h) | EC50 ([8]; Homo sapiens) | EC50 ([9]; Homo sapiens, 72 h) | EC50 ([10]; Homo sapiens, 72 h) | Structure (SMILES) | percentage (%) cell viabilities [1] | percentage (%) cell viabilities [2, 17] | percentage (%) cell viabilities [3] | percentage (%) cell viabilities [4, 18] | percentage (%) cell viabilities [5, 19] | percentage (%) cell viabilities [6] | percentage (%) cell viabilities [7, 17] | percentage (%) cell viabilities [8] | percentage (%) cell viabilities [9, 18] | percentage (%) cell viabilities [10, 19] | also measured |
| --- | --- | --- | --- | --- | --- | --- | --- | --- | --- | --- | --- | --- | --- | --- | --- | --- | --- | --- | --- | --- | --- |
| 16 ± 0.7 nM | 6.2 nM | 13 ± 0.5 nM | 7.9 ± 0.4 nM | 7 ± 1 nM | 16 ± 1 nM | 9.3 ± 0.8 nM | 8.6 ± 0.5 nM | 6.6 ± 0.5 nM | 6.8 ± 0.4 nM | CC(C)C[C@H](NC(=O)[C@H](Cc1ccccc1)NC(=O)c1cnccn1)B(O)O [bortezomib] |  |  |  |  |  |  |  |  |  |  | viability at 1 µM [1, 11]: 0%; viability at 1 µM [2, 12]: 0%; viability at 1 µM [3, 13]: 0%; viability at 1 µM [4, 14]: 0%; viability at 1 µM [5, 15]: 0%; viability at 1 µM [6, 11]: 8.8%; viability at 1 µM [7, 12]: 3%; reduction of the population of viable cells [7, 16]: 97%; viability at 1 µM [8, 13]: 4.1%; viability at 1 µM [9, 14]: 4.9%; viability at 1 µM [10, 15]: 9.3% |
|  |  | 26 nM |  |  |  |  | 33 nM |  |  | Nc1ccn([C@@H]2O[C@H](CO)[C@@H](O)C2(F)F)c(=O)n1 [gemcitabine] | 24% | 8.5% | 24% | 1.9% | 38% | 54% | 62% | 47% | 20% | 50% | reduction of the population of viable cells [4, 16]: more than 98%; EC50 dose of monotherapy ([6]; 72 h): resistant; EC50 dose of monotherapy ([7]; 72 h): resistant; EC50 dose of monotherapy ([9]; 72 h): resistant; EC50 dose of monotherapy ([10]; 72 h): resistant |
| 620 ± 160 nM | 7200 ± 800 nM |  | 4000 ± 600 nM | 17000 ± 2800 nM | 2700 nM | 7400 ± 1000 nM | 6800 ± 900 nM | 3600 ± 500 nM | 12700 ± 1700 nM | CNC(=O)c1cc(Oc2ccc(NC(=O)Nc3ccc(Cl)c(C(F)(F)F)c3)cc2)ccn1 [sorafenib] | 0.0% | 0.0% | 0.0% | 0.0% | 0.0% | 1.8% | 4.4% | 4.7% | 2.4% | 2.3% | reduction of the population of viable cells [6, 16]: more than 98% |
